Measurements from publication PMC12673918, “Design, Synthesis, and Selective Antiproliferative Activity of Indolizine Derivatives as Microtubule Destabilizers” (Archiv Der Pharmazie, 2025).

Assays:
Assay type in all cases: cell-based
CAL‐27 (oral carcinoma) = assay: Resazurin cell viability assay, CAL‐27; details: 50 µM, 72 h, mean ± SD, n = 3; for inhibition at 50 µM: Homo sapiens, CAL-27, read-out: % Cellular growth inhibition (at 50 µM) CAL‐27
Procedure: (§1) The tongue squamous cell carcinoma cell line CAL‐27 (ATCC CRL‐2095), breast carcinoma BT‐20 (ATCC HTB‐19), gastric carcinoma HGC‐27 (BCRJ Code 0310), and normal oral fibroblast OHMF (culture of fibroblasts derived from human oral healthy mucosa, approved by the Research Ethics Committee of the University of São Paulo, Campus of Ribeirão Preto, Brazil (with protocol number 049) were cultured in DMEM medium (DMEM, Sigma‐Aldrich, St. Louis, MO, USA) supplemented with 10% fetal bovine serum and a solution of penicillin (100 U/mL) and streptomycin (100 μg/mL). The cultures were maintained in a humidified incubator with 5% CO₂ at 37°C.
(§2) Cell viability was analyzed using the resazurin assay. For this, cells were seeded in 96‐well plates (1 × 10^3 cells per well) and incubated at 37°C with 5% CO₂ overnight for cell adhesion. Subsequently, the cells were treated with different compounds (0–50 µM) for 72 h. After treatment, the medium was replaced with phenol‐free DMEM medium (Sigma‐Aldrich) containing resazurin at a concentration of 44 µM (Sigma‐Aldrich). After incubation for 4 h at 37°C, fluorescence detection was performed (excitation 530/25 nm, emission 590/35 nm) using a microplate fluorimeter (Synergy 2, Biotek). Initial cell growth inhibition assays were performed in triplicate or quadruplicate, while IC50 determinations were conducted in triplicate. Data were plotted, and IC₅₀ values were determined by nonlinear regression using GraphPad Prism software 9.0.
(§3) ^a Cell viability was assessed using the resazurin assay after 72 hours of compound treatment. Fluorescence was measured to estimate % of cellular growth inhibition at 50 µM values, based on triplicate experiments.
(§4) ^b IC50 values were determined using the same resazurin-based assay, with fluorescence measurements performed after 72 hours of treatment. These experiments were carried out in triplicate.

human P2X7 receptor = molecular target: T1, human P2X7 receptor (Homo sapiens, UniProt Q99572); assay: YO‐PRO‐1 dye uptake assay for the P2X7 receptor; details: for inhibition at 10 µM: P2X7, read-out: % Inhibition of P2X7R at 10 µM compounds’ concentration
T1 construct: host or cells: HEK-293
T1 sequence (Q99572 1-595): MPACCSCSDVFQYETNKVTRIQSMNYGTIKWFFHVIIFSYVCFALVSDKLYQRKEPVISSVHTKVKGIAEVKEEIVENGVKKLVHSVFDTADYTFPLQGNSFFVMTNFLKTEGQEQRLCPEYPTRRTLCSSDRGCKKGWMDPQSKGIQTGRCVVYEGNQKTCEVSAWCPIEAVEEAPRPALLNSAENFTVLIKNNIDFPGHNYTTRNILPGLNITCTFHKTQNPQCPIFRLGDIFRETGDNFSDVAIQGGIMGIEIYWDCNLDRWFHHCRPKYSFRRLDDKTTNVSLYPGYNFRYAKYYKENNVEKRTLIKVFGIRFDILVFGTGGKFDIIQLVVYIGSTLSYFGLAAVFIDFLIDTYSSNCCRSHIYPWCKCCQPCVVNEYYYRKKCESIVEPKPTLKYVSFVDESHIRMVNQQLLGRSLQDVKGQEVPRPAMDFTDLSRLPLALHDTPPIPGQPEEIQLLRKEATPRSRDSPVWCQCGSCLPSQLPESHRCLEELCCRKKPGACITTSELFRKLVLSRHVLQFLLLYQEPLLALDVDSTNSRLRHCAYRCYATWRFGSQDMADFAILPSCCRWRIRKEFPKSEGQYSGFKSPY
Procedure: HEK‐293 cell lines stably expressing human P2X7 receptor (hP2X7R‐HEK‐293, B'SYS GmbH, Witterswil, Switzerland) were maintained in a 50/50 mix of Dulbecco's Modified Eagle Medium and F12 medium (DMEM/F12) supplemented with 9% (v/v) FCS, 1% (v/v) Penicillin/Streptomycin (10000 I.U./mL, 10 mg/mL in 0.9% NaCl) and G418 (100 µg/mL) at 37°C and 5% CO2. Cells were subcultured in cell culture 75 cm^2 flasks and split every 2‐4 days (1:3; 1:6; 1:10) once confluent.
HEK‐293 cell lines stably expressing human P2X7 receptor were seeded into black‐walled Nunc 96‐well optical bottom plates (Thermo Fisher Scientific) at 2.0–4.0 × 10^4 cells/well and incubated at 37°C for 24–48 h. After removing the culture medium, cells were washed with 100 µL wash buffer (280 mM Sucrose; 5.6 mM KCl; 0.5 mM CaCl2; 10 mM D‐Glucose; 10 mM HEPES; 5 mM N‐Methyl‐D‐glucamine (pH 7.4)). Then, 50 µL assay buffer (280 mM Sucrose; 6.4 mM KCl, 10 mM D‐Glucose; 10 mM HEPES; 5.0 mM N‐Methyl‐D‐glucamine (pH 7.4)) and 50 µL of antagonist dilutions (10^–5–10^–9 M) in assay buffer were added, and the cells were incubated at 37°C for 30 min. […] Finally, the uptake of YO‐PRO‐1 dye was recorded in a 9‐point‐well scan by following the fluorescence change using a FlexStation 3 Multi‐Mode Microplate Reader (Molecular Devices, San Jose, CA, USA, Software SoftMax7 Pro, endpoint protocol, well scan with reading pattern “fill scan”, λ ex = 485 nm, λ em = 535 nm). To determine the concentration‐dependent uptake inhibition by antagonists, the YO‐PRO‐1 uptake, expressed as RFU, was plotted against the concentrations of the compounds.

BT‐20 (breast carcinoma) = assay: Resazurin cell viability assay, BT‐20; details: 50 µM, 72 h, mean ± SD, n = 3; for inhibition at 50 µM: Homo sapiens, BT-20, read-out: % Cellular growth inhibition (at 50 µM) BT‐20
Procedure: as §1, §2, §3, §4

human P2X4 receptor = molecular target: T2, human P2X4 receptor (Homo sapiens, UniProt Q99571); assay: Ca2+‐flux assay for the hP2X4 receptor; details: for inhibition at 10 µM: read-out: % Inhibition of P2X4R at 10 µM compounds’ concentration
T2 construct: expressed in transfected cells; host or cells: human 1321N1 astrocytoma cells
T2 sequence (Q99571 1-388): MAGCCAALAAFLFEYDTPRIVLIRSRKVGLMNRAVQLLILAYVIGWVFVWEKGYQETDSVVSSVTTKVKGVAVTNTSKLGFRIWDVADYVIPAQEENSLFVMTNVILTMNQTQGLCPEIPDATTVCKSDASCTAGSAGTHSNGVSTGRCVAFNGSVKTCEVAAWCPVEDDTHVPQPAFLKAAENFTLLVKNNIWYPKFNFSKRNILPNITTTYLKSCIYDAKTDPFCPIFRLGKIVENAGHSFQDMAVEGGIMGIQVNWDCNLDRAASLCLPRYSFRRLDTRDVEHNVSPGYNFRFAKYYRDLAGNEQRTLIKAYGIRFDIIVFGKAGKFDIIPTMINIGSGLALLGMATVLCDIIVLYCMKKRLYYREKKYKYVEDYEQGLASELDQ
Procedure: Human 1321N1 astrocytoma cells stably expressing the human P2X4 receptor (generated in‐house) were cultured in Dulbecco's Modified Eagle Medium supplemented with 9% (v/v) FCS, 1% (v/v) Penicillin/Streptomycin (10000 I.U./mL, 10 mg/mL in 0.9% NaCl) and puromycin (1 µg/mL) as a selection antibiotic at 37°C and 5% CO2. Cells were subcultured in cell culture 75 cm^2 flasks and split every 2–4 days (1:5; 1:6) once confluent.
1321N1 cells stably expressing human P2X4 receptor were seeded into black‐walled 96‐well plates (Thermo Fisher Scientific) at 2.5 × 10^4 cells/well and incubated at 37°C for 24–48 h. All test compounds were diluted in assay buffer solution (SBS: 135 mM NaCl; 5 mM KCl; 1 mM MgCl2.6 H2O; 1.8 mM CaCl2; 5.6 mM D‐Glucose; 10 mM HEPES, 0.1% (m/v) BSA, 0.05% (m/v) gelatine, 2.3 mM probenecid). The culture medium was removed, and 100 µL of 4 μM fluorescent Ca^2+ indicator Calbryte520AM in SBS was added and incubated at 37°C for 1 h. The dye solution was then removed, 100 µL of SBS solution and 50 µL of antagonist dilutions (10^–5–10^–9 M) in SBS were added, and the cells were incubated at room temperature for an extra 30 min. Finally, 50 µL of ATP (at a concentration of the previously determined EC50‐ value) was added by using FlexStation 3 Multi‐Mode Microplate Reader (Molecular Devices, San Jose, CA, USA, Software SoftMax7 Pro). The changes in intracellular Ca^2+ ion concentrations were monitored over 200 s (20 s baseline) by measuring the fluorescence signal at λ ex = 494 nm and λ em = 516 nm ([…] cut‐off). The concentration‐dependent decrease in Ca^2+‐flux, expressed as RFU, was plotted against the concentrations of the compounds.

[1] = tested on: HGC‐27 (gastric carcinoma); assay: Resazurin cell viability assay, HGC‐27; details: 50 µM, 72 h, mean ± SD, n = 3; for inhibition at 50 µM: Homo sapiens, HGC-27, read-out: % Cellular growth inhibition (at 50 µM) HGC‐27
Procedure: as §1, §2, §3, §4

[2] = tested on: CAL‐27, BT‐20 and HGC‐27 cancer cell lines; assay: Resazurin antiproliferative screening, cancer cell line panel; details: 50 μM, 70% inhibition threshold
Procedure: as §1, §2

| Compound | inhibition at 50 µM (CAL‐27 (oral carcinoma)) [%] | inhibition at 10 µM (human P2X7 receptor) [%] | inhibition at 50 µM (BT‐20 (breast carcinoma)) [%] | inhibition at 10 µM (human P2X4 receptor) [%] | inhibition at 50 µM [1] [%] | % Cellular growth inhibition (at 50 µM) CAL‐27 (CAL‐27 (oral carcinoma)) [%] | level of inhibition in the 50 µM screening [2] [%] | % Inhibition of P2X7R at 10 µM compounds’ concentration (human P2X7 receptor; 10 μM) [%] | % Cellular growth inhibition (at 50 µM) BT‐20 (BT‐20 (breast carcinoma)) [%] | % Inhibition of P2X4R at 10 µM compounds’ concentration (human P2X4 receptor; 10 μM) [%] | % Cellular growth inhibition (at 50 µM) HGC‐27 [1] [%] |
| --- | --- | --- | --- | --- | --- | --- | --- | --- | --- | --- | --- |
| COc1ccc2c(C(=O)c3ccc(Cl)cc3)ccn2c1 [Compound 7b, (4‐chlorophenyl)(6‐methoxyindolizin‐1‐yl)methanone] | 23 ± 1 | 4 | 8 ± 1.3 | 1 | 10 ± 1.4 | – | – | – | – | – | – |
| COc1ccc2c(C(=O)c3ccc(C)cc3)ccn2c1 [Compound 7c, (6‐methoxyindolizin‐1‐yl)(p‐tolyl)methanone] | 20 ± 0.7 | -9 | 15 ± 0.5 | -2 | 13 ± 0.7 | – | – | – | – | – | – |
| COc1ccc(C(=O)c2ccn3cc(OC)ccc23)cc1 [Compound 7d, (6‐methoxyindolizin‐1‐yl)(4‐methoxyphenyl)methanone] | 15 ± 1.1 | 2 | 7 ± 0.9 | 8 | 1 ± 1 | – | – | – | – | – | – |
| CCOc1cn2cc(OC)ccc2c1C(=O)c1cc(OC)c(OC)c(OC)c1 [Compound 8c, (2‐ethoxy‐6‐methoxyindolizin‐1‐yl)(3,4,5‐trimethoxyphenyl)methanone] | 56 ± 4.6 | 3 | 55 ± 4.7 | 10 | 43 ± 3.5 | – | – | – | – | – | – |
| CCOC(=O)c1cn2cc(OC)ccc2c1C(=O)c1cc(OC)c(OC)c(OC)c1 [Compound 8d, Ethyl [6‐methoxy‐1‐(3,4,5‐trimethoxybenzoyl)indolizine]‐2‐carboxylate] | – | – | – | – | – | 66 ± 0.8 | ≤ 70 | -10 | 55 ± 4.7 | 2 | 44 ± 1.9 |
| COc1ccc2c(C(=O)c3cc(OC)c(OC)c(OC)c3)c(-c3ccccc3)cn2c1 [Compound 8f, (6‐methoxy‐2‐phenylindolizin‐1‐yl)(3,4,5‐trimethoxyphenyl)methanone] | 69 ± 0.4 | 5 | 55 ± 1.8 | 4 | 49 ± 4 | – | – | – | – | – | – |
| COc1ccc2c(C(=O)c3cc(OC)c(OC)c(OC)c3)c(-c3ccccn3)cn2c1 [Compound 8g, [6‐methoxy‐2‐(pyridin‐2‐yl)indolizin‐1‐yl](3,4,5‐trimethoxyphenyl)methanone] | 68 ± 1 | 1 | 54 ± 2.8 | -8 | 44 ± 0.4 | – | – | – | – | – | – |
| CCCCCc1cn2cc(OC)ccc2c1C(=O)c1cc(OC)c(OC)c(OC)c1 [Compound 8i, (6‐methoxy‐2‐pentylindolizin‐1‐yl)(3,4,5‐trimethoxyphenyl)methanone] | 57 ± 2.5 | 6 | 38 ± 3.5 | -1 | 61 ± 1.5 | – | – | – | – | – | – |
